Tests used:
Format in all cases: in vivo
microbivorous nematodes = test: Greenhouse nematicidal experiment, microbivorous nematodes in soil and roots; conditions: compared with 2-propenal
Text: (§1) The nematicidal properties of 2-propenal (CH2═CH—CHO; acrolein), 2-butenal (CH3—CH═CH—CHO; crotonaldehyde), and trans 2-pentenal (CH3—CH2—CH═CH—CHO) were studied in greenhouse experiments with soil severely infected with the reniform nematode (Rotylenchulus reniformis). The soil was collected from a cotton field and was a sandy loam with pH 6.2, organic matter content <1.0% and cation exchange capacity <10 meq/100 gms soil. The soil was mixed 50:50 by volume, with washed fine siliceous river sand and the mixture, here-from referred to as soil. The moist soil (50% field capacity) was apportioned in 1 Kg quantities contained in 4L polyethylene bags. The compounds were applied to the soil in the bags, and after thorough mixing the treated soil was transferred to 1 L capacity, 4-inch-diam. plastic (PVC) pots which were then covered with a polyethylene bag (1 mil) held tightly to the outside wall of the pot with a rubber band. The covered pots were placed on a greenhouse table and after 10 days the bags were removed and soil samples for nematode analyses were collected from each pot. The pots were planted with “Young” soybean (5 seed/pot.) Soybean plants were grown for 8 weeks when they were removed, soil samples taken for nematode analysis (salad bowl incubation technique), and data were collected on shoot height, and fresh weights of shoots and roots. The relative health of the root systems was determined using a subjective scale. […] Values between 1 and 5 represented intermediate degrees of damage. The roots were incubated to assess nematode populations in them.
(§2) Emulsifiable concentrates (EC's) were prepared for all three compounds containing 10% (w/w) emulsogen. The EC's were used to make aqueous emulsions containing 2.5% active ingredient; these emulsions were then used to deliver the compounds to soil. Each compound was delivered using the following rates: 0, 25, 50, 75, 100, 125, 150, 175, 200, 225, 250, 275, 300 mgs/kg soil. In every experiment there were 6 replications (pots) per treatment arranged in a randomized complete block design.
(§3) All data were analyzed according to standard procedures for analysis of variance. Fisher's Least Significant Differences (FLSD) were calculated when F values were significant and are included in the graphs. Curvilineal analyses were conducted according to standard procedures with the TableCurve 2D program.

[1] = system: reniform nematode (Rotylenchulus reniformis); test: Greenhouse nematicidal experiment, soil infested with reniform nematode; conditions: compared with 2-propenal
Text: as §1, §2, §3

tomato plant = test: Tomato plant growth study, vigor rating; parameters: key to TOMATO VIGOR 1-5SCALE: 1 = very little vigor, 5 = very vigorous; conditions: 350 lb ai/a
Text: This example together with the data in Table 1 includes results of a study conducted to test the affects of acrolein on tomato plant growth. The first column in Table 1 includes, from left to right the treatment number, the treatment name, the rate of application, and the unit for that rate. The treatment name includes two separate treatment ingredients for each treatment number. The top name of each treatment name lists the test additive, and the bottom listing of the treatment name lists any additional herbicide applied in that particular treatment number. For example, in treatment number 5, methyl bromide was applied with a sandea herbicide. The rate and the rate unit headings, for this study, lists the amount of application of the treatment ingredients in pounds of active ingredients per acre (lb ai/a). Column 2 of Table 1 lists a vigor rating for each tomato plant on a scale of 1 to 5, wherein a 1 rating indicates a tomato plant with very little vigor, and a 5 rating indicates a very vigorous tomato plant. Column 2 lists vigor scale ratings for each treatment number taken on Aug. 17, 2005, and column 3 lists a vigor rating for each treatment taken on Aug. 25, 2005.

Molecule | response patterns of nematodes to applications (microbivorous) (microbivorous nematodes) | response patterns of nematodes to applications (reniform) [1] | TOMATO VIGOR 1-5SCALE (tomato plant; 17/Aug/05, no herbicide) | TOMATO VIGOR 1-5SCALE (tomato plant; 17/Aug/05, no herbicide, listed as METHYL BROMIDE 2) | TOMATO VIGOR 1-5SCALE (tomato plant; 17/Aug/05, with SANDEA 0.25 lb ai/a) | TOMATO VIGOR 1-5SCALE (tomato plant; 17/Aug/05, with SANDEA 0.25 lb ai/a, listed as METHYL BROMIDE 2) | TOMATO VIGOR 1-5SCALE (tomato plant; 17/Aug/05, with V-10142 0.25 lb ai/a) | TOMATO VIGOR 1-5SCALE (tomato plant; 17/Aug/05, with V-10142 0.25 lb ai/a, listed as METHYL BROMIDE 2) | TOMATO VIGOR 1-5SCALE (tomato plant; 25/Aug/05, no herbicide) | TOMATO VIGOR 1-5SCALE (tomato plant; 25/Aug/05, with SANDEA 0.25 lb ai/a) | TOMATO VIGOR 1-5SCALE (tomato plant; 25/Aug/05, with SANDEA 0.25 lb ai/a, listed as METHYL BROMIDE 2) | TOMATO VIGOR 1-5SCALE (tomato plant; 25/Aug/05, with V-10142 0.25 lb ai/a) | TOMATO VIGOR 1-5SCALE (tomato plant; 25/Aug/05, with V-10142 0.25 lb ai/a, listed as METHYL BROMIDE 2) | change in vigor scale rating over the term of the test (tomato plant; no additional herbicide)
2-butenal | very similar to those described for 2-propenal | very similar to those described for 2-propenal |  |  |  |  |  |  |  |  |  |  |  | 
CC/C=C/C=O [2-pentenal, trans-2-pentenal] | very similar to those described for 2-propenal | very similar to those described for 2-propenal |  |  |  |  |  |  |  |  |  |  |  | 
CBr [METHYL BROMIDE 1, methyl bromide, reference compound] |  |  | 2.500 | 2.250 | 2.250 | 2.500 | 2.000 | 2.500 | 2.500 | 2.750 | 2.500 | 2.650 | 2.500 | no change

From patent US20060089263A1, “2-Propenal and related enal compounds for controlling plant pests and weeds in soil” (priority 2004, published 2006)
